Data taken from US4160643A, “Water soluble cationic azo dyestuffs containing a cyclammonium group” (Imperial Chemical Industries Limited, priority 1976, dated 1979).
Read-outs that look alike come from different tables or passages of the source. One block for each compound: values may come before it.

Legend:
[1] = Solubility of dyestuffs in water; assay type: physicochemical
[2] = Behaviour in forming a liquid in a water/acetic acid/sulpholane solvent system; assay type: physicochemical; conditions: Table 1; ambient temperature
[3] = Table 3, dyestuff of Example 13 structure, chloride, 25° C., read-out: Solubility in water at 25° C.
[4] = Table 3, dyestuff of Example 13 structure, chloride, 50° C., read-out: Solubility in water at 50° C.
[5] = Table 1, 25° C., read-out: Solubility in water at 25° C.
[6] = Table 4, dyestuff of Example 19 structure, acid sulphate, 25° C., read-out: Solubility in water at 25° C.
[7] = Table 4, dyestuff of Example 19 structure, acid sulphate, 50° C., read-out: Solubility in water at 50° C.

- solubility [1, 6]: 1000 µg/mL
- solubility [1, 7]: 5000 µg/mL
Structure (SMILES): CCN(CC[n+]1ccc(C)cc1)c1ccc(N=Nc2c(Cl)cc([N+](=O)[O-])cc2Cl)cc1 [γ-picoline (Table 4)]

- solubility [1, 6]: 10000 µg/mL
- solubility [1, 7]: 20000 µg/mL
Structure (SMILES): CCN(CC[n+]1ccccc1)c1ccc(N=Nc2c(Cl)cc([N+](=O)[O-])cc2Cl)cc1 [Pyridine (Table 4)]

Second part, the compound before the results:

Structure (SMILES): CCN(CC[n+]1ccccc1)c1ccc(N=Nc2ccc([N+](=O)[O-])cc2Cl)cc1 [Pyridine (Table 3)]
- solubility [1, 3]: 10000 µg/mL
- solubility [1, 4]: 300000 µg/mL

Structure (SMILES): O=[N+]([O-])c1ccc(N=Nc2ccc(NCC[n+]3ccccc3)c(Cl)c2)cc1 [Pyridine (Table 1)]
- Solubility of 1 part of dye in 1 part water 1.5 part acetic acid 1 part sulpholane [2]: Not a solution at ambient
- solubility [1, 5]: < 2500 µg/mL

Structure (SMILES): Cc1cccc[n+]1CCNc1ccc(N=Nc2ccc([N+](=O)[O-])cc2)cc1Cl [α-picoline]
- solubility [1, 5]: < 2500 µg/mL

Structure (SMILES): Cc1cc[n+](CCNc2ccc(N=Nc3ccc([N+](=O)[O-])cc3)cc2Cl)cc1 [γ-picoline (Table 1)]
- Solubility of 1 part of dye in 1 part water 1.5 part acetic acid 1 part sulpholane [2]: Not a solution at ambient
- solubility [1, 5]: 75000 to 100000 µg/mL

Structure (SMILES): CCN(CC[n+]1ccc(C)cc1)c1ccc(N=Nc2ccc([N+](=O)[O-])cc2Cl)cc1 [γ-picoline (Table 3)]
- solubility [1, 3]: 10000 µg/mL
- solubility [1, 4]: 240000 µg/mL
